Experimental findings from patent US8227408B2, “Leptin as an anti-amyloidogenic biologic and methods for delaying the onset and reducing Alzheimer's disease-like pathology” (Neurotez, Inc., priority 2005, dated 2012) are described below.

The subject of test [1] is SY5Y cells. Put plainly: Aβ production by SY5Y cells. Type of test: cell-based, human. Particulars: total Aβ in conditioned media, 5 h; concentration (TOFA 200 μM, cerulenin 200 μM, etomoxir 40 μM, peptide YY (3-36) 25 μM, CNTF 25 μM, leptin 400 ng/ml); mean ± SEM; NS = non-significant. The text has this:
(§1) Cell cultures, Treatments, Antibodies and Immunoassays. SY5Y cells (human neuroblastoma) were maintained in culture as described (Johnsingh et al., FEBS Lett. 465:53-8 (2000)). Primary neural cultures were obtained from ε16 rat embryonic cortex, as described (Shimoda et al., 1992. Brain Res. 586:319-31 (1992)). These were either grown as mixed cultures (Johnsingh et al., FEBS Lett. 465:53-8 (2000)) or grown under conditions that favor the isolation and proliferation of astrocytes (Takeshima et al., J Neurosci. 14:4769-79 (1994)).
(§2) SY5Y and hyg-sa134-Neuro2a cells were treated at 80% confluency (see below). Primary neural cultures from mouse embryos were allowed to grow for 6-12 days following plating and prior to viral infection and treatments.
(§3) About 100 ng/ml or about 400 ng/ml leptin (Harbor-UCLA, CA), was added in cell culture medium for 2 or 5 h. Cells were approximately 80% confluent at the time of treatment. Peptide YY (3-36) (Phoenix Pharmaceuticals, Inc., CA), and CNTF (Sigma-Aldrich, Mo.) were added at about 25 μM or 150 μM for the same incubation periods. TOFA, etomoxir (Research Biochemicals International, MA) and cerulenin (Sigma-Aldrich, Mo.) were used as described below.
(§4) For the determination of Aβ peptide several methodologies also were used. SY5Y cells in culture were metabolically labeled with ^35S-[Met] as described (Figueiredo-Pereira et al. J Neurochem. 72:1417-22 (1999)), followed by immunoprecipitation, resolution of the immunoprecipitates on SDS-PAGE, autoradiography, and densitometric analysis of the autoradiogram. Neuro2a cells were stably transfected with hyg-sa134 (K. Sambamurti, S. Carolina Medical Center, SC) and Aβ40 (SEQ ID NO: 4) plus Aβ42 (SEQ ID NO: 5) plus Aβ43 (SEQ ID NO: 6) (Total Aβ) in the medium then was quantified by sandwich ELISAs developed with 4G8 and 6 ε10 monoclonal antibodies (Signet, Mass.) as described (Figueiredo-Pereira et al., J Neurochem. 72:1417-22 (1999)). Commercially available ELISA kits (KMI Diagnostics, MN) were used for the separate determination of Aβ40 (SEQ ID NO:4) and Aβ42/43 (SEQ ID NO:5/SEQ ID NO:6) in formic acid extracts of mice brains. Flotillin was detected using monoclonal anti-flotillin-1 antibodies (BD Biosciences, CA). Actin was detected using monoclonal anti-actin antibodies (Research Diagnostics, Inc, NJ).
(§5) Human (SYSY) or mouse neuroblastoma cell-lines (Neuro2a) commonly are used to study amyloid β metabolism in vitro. Neuro2a cells are stably transfected with hyg-sa134 (SEQ ID NO: 11), a plasmid driving the expression of a recombinant fusion protein containing the human C-terminal fragment of APP of about 134 amino acids, CAPP134 (SEQ ID NO: 10). Here, 5Y5Y or Neuro2a cultures were treated for 2 or 5 h with about 100 ng/ml or about 400 ng/ml leptin (FIG. 4a, 4b). Similarly, primary neurons from embryonic rat brain, infected with an adenovirus to direct the expression of CAPP134 (SEQ ID NO:10) also were treated according to the same regimen.

Test [2] deals with primary embryonic rat neurons infected with adenovirus. Put plainly: Aβ production by primary embryonic rat neurons infected with adenovirus (SEAP-APP). Type of test: cell-based. Particulars: total Aβ in conditioned media, 5 h; concentration (TOFA 200 μM, cerulenin 200 μM, etomoxir 40 μM, peptide YY (3-36) 25 μM, CNTF 25 μM, leptin 400 ng/ml); mean ± SEM; NS = non-significant.
Text: as §1
(§6) Neuro2a (mouse neuroblastoma) stably transfected with hyg-sa134, a pcDNA3.1/Hygro plasmid (Invitrogen, CA) modified to express a fusion protein of secreted alkaline phosphatase (SEAP) and a fragment of APP consisting of the C-terminal 134 amino acids (“CAPP134”) (SEQ ID NO:10) were maintained in culture as described ([…]) in the presence of 400 μg/ml of hygromycin. SEQ ID NO: 11 is the DNA sequence of the entire hygsa134 vector, which was derived from the pcDNA3.1/Hygro vector by genetic manipulation to insert the DNA sequences for SEAP and CAPP134. The SEAP-CAPP cDNA insert from hyg-sa134 was also subcloned into an adenoviral vector using the Adeno Vator system (Qbiogene, Calif.). The DNA sequence for SEAP (corresponding to nucleotides 981-2441 of hyg-sa134) (SEQ ID NO: 9) is located 5′ to the DNA sequence (SEQ ID NO: 12) coding for CAPP134 (SEQ ID NO: 10).
as §2, §5

In test [3] the test system is Neuro2a cells stably transfected with hyg-sa134 (SEAP-APP). Put plainly: Aβ production by Neuro2a cells stably transfected with hyg-sa134 (total Aβ in media, sandwich ELISA). Type of test: cell-based, mouse. The note with it: for Aβ production / levels of Aβ in the media (in words): 2 or 5 h treatment; for Neuro2a/SEAP-APP Aβ(% control): total Aβ in conditioned media, concentration (TOFA 200 μM, cerulenin 200 μM, etomoxir 40 μM, peptide YY (3-36) 25 μM, CNTF 25 μM, leptin 400 ng/ml), mean ± SEM, 4 experiments, NS = non-significant; for Neuro2a/SEAP-APP Aβ(% control) / Aβ production (in words): 5 h. How it is done:
as §6, §2
About 5 μg/ml or about 10 μg/ml water-soluble cholesterol was added to cultures for 2 or 5 hours. Water soluble cholesterol (Sigma-Aldrich, MO) is a solution made of cholesterol balanced with cyclodextrin CDX (40 mg cholesterol per gr CDX). For comparison, cultures were treated with the equivalent amount of the resin alone, which leads to depletion of cholesterol in the cultures (Simons et al., Proc Natl Acad Sci USA. 95:6460-4 (1998)).
as §3, §4
as §5, with “regimen. […]” for “regimen.”

The test system of test [4] is SY5Y cells. Description: 125I-Aβ uptake by SY5Y cells (apoE-dependent). The note with it: RAP 1 μM added together with Aβ or the Aβ/apoE complex. Type of test: cell-based, human. The protocol:
Preparation of ApoE and binding with ^125I-Aβ. ApoE was isolated from the conditioned media of human embryonic kidney (HEK-293) cells stably-transfected with human apoE (having the ε3 allele or the ε4 allele) cDNA (Tezapsidis et al., FASEB J. 17:1322-1324 (2003)). These preparations, while usually poor in lipid, are fully functional for uptake experiments. ApoE then was pre-incubated with ^125I-Aβ overnight at 37° C. (Aβ/ApoE: 1/50 w/w) as described (Tezapsidis et al., FASEB J. 17:1322-1324 (2003)).
Aβ-uptake by SY5Y cells. Human ^125I-Aβ (iodinated at Tyr-10, Amersham Biosciences, IM 294) uptake was measured following addition of 0.1 nM ^125I-Aβ40 (SEQ ID NO: 4) to confluent SY5Y cells (60,000 cpm/ml) in the presence or absence of 100 ng/ml or 400 ng/ml leptin also included in a 24 h pre-incubation period. ^125I-Aβ was either added alone or was previously incubated with apoε3. In controls, Receptor Associated Protein (“RAP”, 1 μM) was added together with Aβ or the Aβ/apoE complex. RAP is an antagonist of a number of lipoprotein receptors (LaDu et al., Neurochem Int. 39:427-34 (2001)). After 24 h, the media were collected and subjected to scintillation counting for γ-Iradiation (Kang et al., 2000. J Clin Invest. 106:1159-66 (2000)). The amount of radioactivity was measured in both the trichloroacetic acid (10%) TCA pellets (representing intact Aβ) and the corresponding supernatants (representing degraded Aβ). 96.5±8.2% (mean±s.e.m., n=4 experiments, triplicate determinations) of the radioactivity found in the medium could be recovered in the TCA pellet and represented intact or oligomeric Aβ (not shown), when Aβ was pre-incubated with apoE.
The amount of TCA-precipitable radioactivity in the soluble fraction of cell lysates was compared to that in the total lysates, the ratio of which was typically about 0.8 to about 0.9 (not shown), to further verify that radioactivity was reduced in the media as a reflection of Aβ uptake by the cells, rather than due to non-specific binding to the extracellular surface of membranes or oligomerization/aggregation of Aβ.
In panel (a), Aβ uptake was measured in SY5Y cells following their treatment at 0 ng/ml, 100 ng/ml or 400 ng/ml leptin. Uptake also was measured in cells previously transfected with antisense DNA for PS1 as described (Tezapsidis et al., FASEB J. 17:1322-1324(2003)) (black). Uptake is expressed as the percentage of that observed with Aβ pre-incubated with apoε3 (medium gray) in the absence of leptin (first set of columns). […] Leptin induced a dose-dependent increase in Aβ uptake with a preference for apoε3 (medium gray) over apoε4 (light gray). In panel (b), SY5Y cells were pre-treated with […] cholesterol (+Chol) or normal medium (−Chol). Then Aβ uptake was measured following its preincubation with apoε3 (ε3) or apoε4 (ε4) in the absence (black) or the presence (gray) of about 400 ng/ml leptin. Cells were more resistant to taking-up Aβ when loaded with cholesterol. […] In panel (c), SY5Y cells were transiently transfected with SREBP-1 or SREBP-2 cDNA or an empty vector (Control). Then Aβ was measured in the medium by ELISAs (Figueiredo-Pereira et al., J Neurochem. 72:1417-22 (1999)) following treatment with (+) or without (−) leptin. […] In panel (d), Aβ uptake was measured in SY5Y cells prepared as in panel (c). Uptake was performed using Aβ/apoε3 complexes.

[5] abbreviates: 25 μM (equimolar concentrations), Table 1 cells.
Setting [6] is: higher (150 μM) concentrations, not shown.

Take `C/C=C/C/C=C/CCC(=O)[C@H]1O[C@H]1C(N)=O` [Cerulenin, cerulenin]: the “SY5Y Aβ (% control)” value with SY5Y cells [1] is recorded as 65 ± 9, NS % control. Besides, the “Neurons/SEAPP-APP Aβ (% control)” value in test [2] came to 66 ± 5 % control. Also, in test [3], the “Aβ production / levels of Aβ in the media (in words)” value (“Aβ production / levels of Aβ” below) is given as “mimicked” and the “Neuro2a/SEAP-APP Aβ(% control)” value came out at 52 ± 12 % control.
With `CCOC(=O)[C@@]1(CCCCCCOc2ccc(Cl)cc2)CO1` [Etomoxir], the “SY5Y Aβ (% control)” value with SY5Y cells [1] amounted to 142 ± 14 % control. Also, in test [2], the “Neurons/SEAPP-APP Aβ (% control)” value is recorded as 158 ± 14 % control. In addition, in test [3], the “Aβ production / levels of Aβ” value was “increased Aβ production” and the “Neuro2a/SEAP-APP Aβ(% control)” value is recorded as 154 ± 14 % control.
In the case of `CCCCCCCCCCCCCCOc1ccc(C(=O)O)o1` [TOFA, 5-(tetradecyloxy)-2-furancarboxylic acid], the “SY5Y Aβ (% control)” value in the test on SY5Y cells [1] stood at 58 ± 12 % control. In test [2], the “Neurons/SEAPP-APP Aβ (% control)” value is recorded as 35 ± 4 % control. Also, in test [3], the “Aβ production / levels of Aβ” value is recorded as “mimicked” and the “Neuro2a/SEAP-APP Aβ(% control)” value amounted to 40 ± 15 % control.
As for “Peptide YY (3-36): gut-derived hormone affecting daily food intake”, in the test on SY5Y cells [1], the “SY5Y Aβ (% control)” value is recorded as 96 ± 7, NS % control. The “Neurons/SEAPP-APP Aβ (% control)” value in test [2] was 98 ± 5, NS % control. The “Aβ production (in words)” value in test [3] (setting [5]) and in test [3] (setting [6]) was “neither peptide changed Aβ production in a statistically significant way” throughout. The “Neuro2a/SEAP-APP Aβ(% control)” value in test [3] is recorded as 92 ± 9, NS % control.
On to methyl-β-cyclodextrin, for which the “Aβ production / levels of Aβ” value in test [3] is reported as “lowering Aβ”.

B1: Ciliary neurotrophic factor: member of the gp130 family of cytokines regulating survival and differentiation of neurons (protein, UniProt P26441 1-200, looked up)
Ciliary neurotrophic factor: MAFTEHSPLTPHRRDLCSRSIWLARKIRSDLTALTESYVKHQGLNKNINLDSADGMPVASTDQWSELTEAERLQENLQAYRTFHVLLARLLEDQQVHFTPTEGDFHQAIHTLLLQVAAFAYQIEELMILLEYKIPRNEADGMPINVGDGGLFEKKLWGLKVLQELSQWTVRSIHDLRFISSHQTGIPARGSHYIANNKKM
Turning to B1, the “SY5Y Aβ (% control)” value in the test with SY5Y cells [1] is recorded as 96 ± 8, NS % control. Besides, in test [2], the “Neurons/SEAPP-APP Aβ (% control)” value is 89 ± 12, NS % control. The “Aβ production (in words)” value in test [3] (setting [5]) and in test [3] (setting [6]) was “neither peptide changed Aβ production in a statistically significant way” each time. For the same molecule, the “Neuro2a/SEAP-APP Aβ(% control)” value in test [3] is 95 ± 4, NS % control.

B2: RAP: Receptor Associated Protein, antagonist of a number of lipoprotein receptors (protein)
chain: YSREKNQPKPSPKRESGEEFRMEKLNQLWEKAQRLHLPPVRLAELHADLKIQERDELAWKKLKLDGLDEDGEKEARLIRNLNVILAKYGLDGKKDARQVTSNSLSGTQEDGLDDPRLEKLWHKAKTSGKFSGEELDKLWREFLHHKEKVHEYNVLLETLSRTEEIHENVISPSDLSDIKGSVLHSRHTELKEKLRSINQGLDRLRRVSHQGYSTEAEFEEPRVIDLWDLAQSANLTDKELEAFREELKHFEAKIEKHNHYQKQLEIAHEKLRHAESVGDGERVSRSREKHALLEGRTKELGYTVKKHLQDLSGRISRARHNEL
As for B2, in the test on SY5Y cells [4], the Aβ uptake result was “abolished uptake”.
